The values below come from patent US5264423A, “Inhibitors for replication of retroviruses and for the expression of oncogene products” (The United States of America as represented by the …, priority 1992, dated 1993).

Entries after “also recorded” stand apart in the source; their conditions may differ.

In one data set the test system is ATH8 cells. Put plainly: Cytotoxicity of ODNs (Table 2). It is filed as cell-based. An excerpt: Since phosphorothioate ODNs which are not anti-sense sequences appear to be very effective antiviral agents, an attempt was made to clarify the nature of the base composition effect.
The subject of data set [1] is HIV (HTLV-IIIB) in ATH8 cells. Put plainly: HIV cytopathic effect inhibition (viable ATH8 cells, trypan blue). As to conditions: for anti-HIV activity (cytopathic effect): in words; for protection of target cells, single agent: each agent alone (2 micromoles dideoxyadenosine; 5 micromoles S-dC14), 1000 virions per cell, day 13. How it is done:
FIGS. 1A-1D and Table 1, The target cells (2×10^5 ATH8 cells) in each tube were pretreated with the stated concentration of each oligomer for 16 hours and then incubated with Polybrene for 45 minutes. After centrifugation, each set of pelleted cells was exposed to HIV (500 virions per cell, which is a much higher dose than the minimal cytopathic dose) and incubated for one hour. Complete media (2 ml RPMI1640) supplemented with L-glutamine (4 mti), 2-mercaptoethanol ([…]), penicillin (50 unit/ml), and streptomycin (50 micrograms/ml), and containing 15% fetal calf serum and IL-2 (15% of conventional IL-2 from Advanced Biotechnologies, Inc., Silver Spring, MD, plus 20 unit/ml of recombinant IL-2 from Amgen Biochemicals, Thousand Oaks, CA) with the various concentrations of oligomers added. The number of viable cells were counted in a hemocytometer using the trypan blue exclusion method for day 7 following exposure to the virus. Filled columns represent non-virus exposed cells, and dotted columns represent virus exposed cells.
The HIV cytopathic effect inhibition with oligodeoxynucleotides was performed with 18 hours of pretreatment of 2×10^5 target cells (ATH8 cells) with oligos prior to exposure to HTLV-IIIB. After this pretreatment, target cells were treated with Polybrene (2 micrograms/ml) for one hour. The target cells were then, respectively, exposed to HTLV-IIIB virus (generally 500 virions per cell in this series of experiments) for one hour. The 2×10^5 cells were then diluted to 2 ml with complete media containing IL-2 and various concentrations of oligos.
The number of viable cells was counted in a hemocytometer using the trypan blue exclusion method on day 7 following exposure to the virus. Each set of data were obtained from simultaneously performed experiments so as to make a precise comparison among agents tested.
The target cells (2×10^5 ATH8 cells per tube) were preincubated with the stated concentrations of S-dC14 for 24 hours and pretreated with 2 micrograms/ml of Polybrene for 45 minutes. After centrifugation, pelleted cells were exposed to the HIV (1000 virions per cell) for one hour. The cells were incubated in 2 ml of complete media containing IL-2, and the viable cells were counted on day 13.
On day 13 after the exposure to the virus, viable cells were counted by the trypan blue dye exclusion method.
Background: Cytopathic effects are the visible damage that an infection or toxin causes in cultured cells.

A short description of data set [2]: Stability in in vitro test media followed by 31P NMR. The class given is in vitro ADME. The text has this:
The phosphorothioate oligodeoxynucleotides of the present invention have suitable chemical characteristics, namely, the ability to hybridize with complementary DNA/MRNA under physiological conditions, and better solubility properties relative to methylphosphonates. Moreover, the thioesters are as soluble in biological media as the parent compounds.
Thus, it is believed that it is mainly the relative resistance of the phosphorothioate analogs to nucleases that preserves them relative to n-ODNs, and allows them to reach and remain at their target site. This was supported in relation to the media used in the in vitro test system by following the 31P NMR spectra of the n-ODN-1 and S-ODN-1 compounds as a function of time.

Data set [3] deals with snake venom (SV) phosphodiesterase. Put plainly: Nuclease susceptibility, snake venom phosphodiesterase. It is filed as in vitro ADME. The text has this:
(§1) Several oligodeoxynucleotides were studied with regard to DNase sensitivity, cf. Table 5. These include cytidine homopolymers, ODN-4 (an anti-message 28-mer complementary to the 3' region of the art/trs region of HIV BH10 clone), and myc-1 (a 15-mer complementary to the initiation codon region of the C-myc oncogene). The DNases employed were predominantly endonuclease S1, the exo- and endonuclease P1, and snake venom (SV) phosphodiesterase. The concentration of S1 nuclease was ten-fold higher (100 micromoles/ml) for reactions of oligo-dc, since both the normal and PS analog were degraded extremely slowly be this enzyme. S1 and P1 nuclease digestion proceeded at 2-45 times more slowly for the S-ODNs than for the normal oligomers, with the […] being somewhat more readily digested than the 28-mer.

Another data set concerns exo- and endonuclease P1. Put plainly: Nuclease susceptibility, P1 nuclease. It is filed as in vitro ADME.
From the text: as §1

In data set [4] the test system is de novo HIV DNA synthesis in ATH8 cells. The experiment in a line: Southern blot of de novo HIV DNA synthesis. It is filed as cell-based. As to conditions: positive control, 50 micromoles (lanes E and J). An excerpt: Target cells (1×10^7 ATH8 cells) were pretreated with or without S-dC28 at various concentrations for sixteen hours, then treated with Polynrene, exposed to HIV (500 virus particles per cell), resuspended, and cultured in the presence or absence of S-dC28. On days 4 and 7 following the exposure to the virus, high molecular weight DNA was extracted, digested with Asp718 (a Kpn I isoschizomer from Boehringer-tiannheim, Indianapolis, IN), and subjected to Southern blot analysis hybridized with a labelled insert of molecular clone of the env region of HTLV-III (BH10) containing a 1.3 Kb Bgl II fragment.
FIGS. 6A-6D show the inhibitor effect of the phosphorothioate oligodeoxycytidine analog (S-dC28) on de novo HIV DNA synthesis in target cells. On days 4 and 7 following the exposure to the virus, a substantial amount of viral DNA was detected by Southern blot analysis without antiviral agents.
On day 4, shown in lanes A-E, and day 7, shown in lanes F-J, following exposure to the virus, high molecular weight DNA was extracted. Lanes A and F contain DNA from ATH8 cells that were exposed to the virus and not protected by S-dC28. Lanes B and G, C and H, D and I, contain DNA from ATH8 cells pretreated and cultured with 1 micromole, 5 micromoles, and 7 micromoles S-dC28, respectively. Lanes E and J contain DNA from ATH8 cells treated with 50 micromoles 2', 3'-dideoxyadenonsine, and lane K contains DNA from ATH8 cells that was not exposed to the virus.

The test system of another data set is gamma-interferon. The experiment in a line: Induction of gamma-interferon in culture supernatant. It is filed as cell-based. As to conditions: supernatant of the culture. The text has this:
Another mechanism which should be considered is induction of interferon production such as that proposed for phosphorothioate analogs of poly-r(I-C). […] Also, since there are no data to support the concept that phosphorothioate internucleotide linkages have a thiol character, and can thus form disulfides, the mechanism of action would likely be different from that proposed for antiviral polynucleotides having thiolated bases such as 5-mercapto-cytosine or -uracil.

In a further data set the test system is HL60 cells. Put plainly: HL60 cell growth (cell count). It is filed as cell-based. Particulars: in words.
The nature of a further data set: Stability in human serum. It is filed as in vitro ADME. Particulars: 31P NMR.
The test system of the next data set is endonuclease S1. Put plainly: Nuclease susceptibility, S1 nuclease. The class given is in vitro ADME.
From the text: as §1

“d-(Cs As Ts As Gs Gs As Gs As Ts Gs Cs Cs T) [S-ODN-3]”: the “CYTOTOXICITY (%)” value in the data set on ATH8 cells (1 uM) was determined as 0%; with ATH8 cells (5 uM), 0%; in the data set on ATH8 cells (10 uM), 0%; with ATH8 cells (25 uM) it was 13%. For the same compound, the “ANTI-VIRAL EFFECT (%)” value is 0% in data set [1] (1 uM), 6% in data set [1] (5 uM), 44% in data set [1] (10 uM) and 94% in [1] (25 uM).
For the compound “d-(Ts Cs Gs Ts Cs Gs Cs Ts Gs Ts Cs Ts Cs C) [S-ODN-1]”, the “CYTOTOXICITY (%)” value in the data set on ATH8 cells (1 uM) stood at 0%; with ATH8 cells (5 uM), 0%; with ATH8 cells (10 uM) it was 0%; with ATH8 cells (25 uM) it was 20%. Also, the “phosphorothioate bonds after 10 days” value in data set [2] (10 days) is reported as “still intact after 10 days”. Also, in data set [2] (after 10 days), the “decomposition based on the total signal intensity” value is recorded as “less than 5%”. The “degradation / half-life in media used in the in vitro test system” value in data set [2] (up to a week) is given as “no significant degradation even after a week”. Further, the “ANTI-VIRAL EFFECT (%)” value stood at 0% in data set [1] (1 uM), 43% in data set [1] (5 uM), 72% in data set [1] (10 uM) and 95% in data set [1] (25 uM). Moreover, the “anti-HIV activity (cytopathic effect)” value in data set [1] was “substantial activity against HIV; also recorded: protected against HIV”.
Regarding “dTCGTCGCTGTCTCCGCTTCTTCCTGCCA [O-ODN-4, reference compound]”, the “Nuclease susceptibility, t1/2” value is 20 s in data set [3]; 72 s in the data set on exo- and endonuclease P1.
For the compound “d-(Gs Gs As Gs As Cs As Gs Cs Gs As Cs Gs A) [S-ODN-2]”, the “CYTOTOXICITY (%)” value in the data set on ATH8 cells (1 uM) was found to be 0%; with ATH8 cells (5 uM), 0%; in the data set on ATH8 cells (10 uM) it was 0%; in the data set on ATH8 cells (25 uM), 6%. Moreover, the “ANTI-VIRAL EFFECT (%)” value in data set [1] (1 uM) turned out to be 11%; in [1] (5 uM) it was 56%; in data set [1] (10 uM), 100%; in [1] (25 uM), 78%. Moreover, in data set [1], the “anti-HIV activity (cytopathic effect)” value is listed as “protected against HIV”.
In the case of “recombinant gamma-interferon: recombinant alpha- or gamma-interferon”, the “inhibition of the cytopathic effect” value in [1] (1000 units added directly to the cultures) was “did not inhibit the cytopathic effect”.
`Nc1ncnc2c1ncn2[C@H]1CC[C@@H](CO)O1` [2', 3'-dideoxyadenosine, reference compound]: the “inhibition of de novo synthesis of viral DNA” value in [4] is “significantly inhibited the de novo synthesis of viral DNA”; in data set [4] (listed as 2', 3'-dideoxyadenonsine) it was “detected only in lanes A and F”. For the same compound, the “protection of target cells, single agent” value in [1] is “only marginal protective effects”.
`Nc1ccn([C@H]2CC[C@@H](CO)O2)c(=O)n1` [2', 3'-dideoxycytidine, reference compound]: the “protection against the virus / antiviral activity” value in data set [1] (0.5 micromoles) is on record as “complete antiviral activity”.
In the case of (dC)n n = 14 [S-dC14], the induction of gamma-interferon result with gamma-interferon is reported as “No induction of gamma-interferon”. The “CYTOTOXICITY (%)” value in the data set with ATH8 cells (1 uM), in the data set on ATH8 cells (5 uM), in the data set with ATH8 cells (10 uM) and in the data set on ATH8 cells (25 uM) was 0% in each case. For the same compound, the “ANTI-VIRAL EFFECT (%)” value amounted to 25% in [1] (1 uM), 100% in data set [1] (5 uM), 100% in [1] (10 uM) and 100% in data set [1] (25 uM). Besides, in data set [1] (5 micromoles (65 micromole equivalents), FIGS. 6B-6D), the “protection against the virus” value was “only a moderate effect”. In addition, the “protection of target cells, single agent” value in data set [1] is “only marginal protective effects”. For the same compound, the “anti-HIV activity (cytopathic effect)” value in [1] is given as “most potent antiviral compound among those tested in this series of experiments”; in [1] (listed as 14-mer oligo-dc) it was “substantial protection against HIV cytopathic effect”.
Take “5'-CTG AAG TGG CAT GAG (CTGAAGTGGCATGAG; all phosphorothioate, sugars by position and methylation of C not given here) [non-sense sequence, reference compound]”: the “effect on HL60 cell proliferation” value with HL60 cells was “none of the controls used, namely, the non-sense sequence, has shown similar activity”; in the data set on HL60 cells (listed as nonsense S-ODN), “not all nonsense S-ODN concentrations affected cell proliferation”.
For “dAACGTTGAGGGGCAT [O-myc-1, reference compound]”, the “Nuclease susceptibility, t1/2” value in data set [3] amounted to 28 s; in the data set on exo- and endonuclease P1, 69 s; with endonuclease S1, 36 s. Also, in the data set “Stability in human serum”, the “half-life in 50% human serum” value is “two to three days”.
